How the values were obtained:
HCT-116 [1] = experiment: Inhibition of colony formation in human HCT116 cells at 50 nM after 14 days by crystal violet staining-based microscopic analysis; format: functional; details: HCT-116, 336 h
HCT-116 [2] = experiment: Induction of apoptosis in human HCT116 cells assessed as viable cells at 50 nM measured after 48 hrs by Annexin V-FITC/propidium iodide staining-based flow cytometry (reference value: 94.5%); format: functional; details: HCT-116, 48 h, read-out: Activity
CT26 = experiment: Antiproliferative activity against mouse CT26 cells assessed as reduction in cell viability after 72 hrs by MTT assay; format: functional, cell-based; details: CT26, 72 h
[3] = test system: Angiopoietin-1 receptor (Homo sapiens), Q02763 [Q939H,Q940H]; experiment: Inhibition of human Tie2 Q939H/Q940H mutant (771 to end residues) using poly(Glu, Tyr) 4:1 as substrate measured after 40 mins in presence of [gamma33P]ATP by scintillation counting method; set-up: scale not given: the % may be the effect or the level left
[4] = target: Serine/threonine-protein kinase Sgk3 (Homo sapiens) (UniProt Q96BR1); experiment: Inhibition of human SGK3 (119 to end residues) using GRPRTSSFAEGKK as substrate measured after 40 mins in presence of [gamma33P]ATP by scintillation counting method; set-up: scale not given: the % may be the effect or the level left
[5] = target: Serine/threonine-protein kinase PAK 4 (Homo sapiens) (UniProt O96013); experiment: Inhibition of recombinant human PAK4 (295 to end residues) assessed as residual activity at 10 uM using myelin basic protein as substrate measured after 40 mins in presence of [gamma33P]ATP by scintillation counting method
[6] = target: Serine/threonine-protein kinase 38-like (Homo sapiens) (UniProt Q9Y2H1); experiment: Inhibition of recombinant human NDR2 (83 to end residues) assessed as residual activity at 10 uM using RSRSRSRSRSRSRSR as substrate measured after 40 mins in presence of [gamma33P]ATP by scintillation counting method
[7] = target: FKBP12A/mTOR (Homo sapiens) (UniProt P62942+P42345); experiment: Inhibition of recombinant full-length human mTOR/FKBP12 assessed as residual activity at 10 uM measured after 40 mins in presence of [gamma33P]ATP by scintillation counting method; format: protein-complex assay
[8] = target: Tyrosine-protein kinase JAK1 (Homo sapiens) (UniProt P23458); experiment: Inhibition of recombinant human JAK1 (866 to end residues) assessed as residual activity at 10 uM using GEEPLYWSFPAKKK as substrate measured after 40 mins in presence of [gamma33P]ATP by scintillation counting method
[9] = target: Cyclin-Y/Cyclin-dependent kinase 16 (Homo sapiens) (UniProt Q00536+Q8ND76); experiment: Inhibition of recombinant full length human CDK16/cyclinY assessed as residual activity at 10 uM using PKSPKARKKL as substrate measured after 120 mins in presence of [gamma33P]ATP by scintillation counting method; format: protein-complex assay
[10] = test system: CDK18/Cyclin Y (Homo sapiens), Q07002+Q8ND76 [T166M]; experiment: Inhibition of recombinant full length human cyclinY/CDK18 T166M mutant assessed as residual activity at 10 uM using YRRAAVPPSPSLS as substrate measured after 40 mins in presence of [gamma33P]ATP by scintillation counting method; format: protein-complex assay
[11] = target: Serine/threonine-protein kinase ICK (Homo sapiens) (UniProt Q9UPZ9); experiment: Inhibition of recombinant human ICK (1 to 312 residues) assessed as residual activity at 10 uM using RRRFRPASPLRGPPK as substrate measured after 40 mins in presence of [gamma33P]ATP by scintillation counting method
[12] = Toxicity in Balb/c mouse lung at 80 mg/kg after 4 weeks by hematoxylin and eosin staining-based assay; format: organism-based; details: in vivo, 672 h
[13] = target: Activin receptor type-1-like (Homo sapiens) (UniProt P37023); experiment: Inhibition of recombinant human ALK1 (142 to end residues) assessed as residual activity at 10 uM using casein as substrate measured after 40 mins in presence of [gamma33P]ATP by scintillation counting method
[14] = target: Dual specificity protein kinase CLK3 (Homo sapiens) (UniProt P49761); experiment: Inhibition of recombinant full-length human CLK3 assessed as residual activity at 10 uM using ERMRPRKRQGSVRRRV as substrate measured after 40 mins in presence of [gamma33P]ATP by scintillation counting method
HCT-116 [15] = experiment: Induction of apoptosis in human HCT116 cells measured after 48 hrs by Annexin V-FITC/propidium iodide staining-based flow cytometric analysis; format: functional, cell-based
[16] = Toxicity in nude BALB/c mouse assessed as change in WBC level at 40 to 80 mg/kg, po once daily for 4 weeks measured post-last dose; format: organism-based; details: in vivo, 672 h
[17] = target: Casein kinase I isoform epsilon (Homo sapiens) (UniProt P49674); experiment: Inhibition of human CK1epsilon assessed as residual activity at 10 uM using KRRRALS(p)VASLPGL as substrate measured after 120 mins in presence of [gamma33P]ATP by scintillation counting method
[18] = test system: Epidermal growth factor receptor (Homo sapiens), P00533 [L858R,T790M]; experiment: Inhibition of recombinant human EGFR T790M/L858R mutant (696 to end residues) assessed as residual activity at 10 uM using GGMEDIYFEFMGGKKK as substrate measured after 40 mins in presence of [gamma33P]ATP by scintillation counting method
[19] = target: Beta-adrenergic receptor kinase 1 (Homo sapiens) (UniProt P25098); experiment: Inhibition of recombinant full-length human GRK2 assessed as residual activity at 10 uM using casein as substrate measured after 40 mins in presence of [gamma33P]ATP by scintillation counting method
[20] = target: Tyrosine-protein kinase Lck (Homo sapiens) (UniProt P06239); experiment: Inhibition of recombinant full-length human Lck assessed as residual activity at 10 uM using KVEKIGEGTYGVV as substrate measured after 40 mins in presence of [gamma33P]ATP by scintillation counting method
[21] = target: Serine/threonine-protein kinase 3 (Homo sapiens) (UniProt Q13188); experiment: Inhibition of recombinant full-length human MST2 (2 to end residues) assessed as residual activity at 10 uM using myelin basic protein as substrate measured after 40 mins in presence of [gamma33P]ATP by scintillation counting method
[22] = target: Proto-oncogene tyrosine-protein kinase Src (Homo sapiens) (UniProt P12931); experiment: Inhibition of human Src (1 to 530 residues) using GGEEEEYFELVKKKK as substrate measured after 40 mins in presence of [gamma33P]ATP by scintillation counting method; set-up: scale not given: the % may be the effect or the level left
[23] = target: Death-associated protein kinase 3 (Homo sapiens) (UniProt O43293); experiment: Inhibition of human ZIPK (1 to 290 residues) using KKLNRTLSFAEPG as substrate measured after 40 mins in presence of [gamma33P]ATP by scintillation counting method; set-up: scale not given: the % may be the effect or the level left
Homo sapiens = species on record: Homo sapiens; experiment: Inhibition of recombinant full-length human ATRIP/ATR M211T mutant assessed as residual activity at 10 uM using GST-cMyc-p53 as substrate measured after 40 mins by fluorescence assay

Chain of Serine/threonine-protein kinase ICK (Homo sapiens) (Q9UPZ9 whole entry, the tested form may be a part): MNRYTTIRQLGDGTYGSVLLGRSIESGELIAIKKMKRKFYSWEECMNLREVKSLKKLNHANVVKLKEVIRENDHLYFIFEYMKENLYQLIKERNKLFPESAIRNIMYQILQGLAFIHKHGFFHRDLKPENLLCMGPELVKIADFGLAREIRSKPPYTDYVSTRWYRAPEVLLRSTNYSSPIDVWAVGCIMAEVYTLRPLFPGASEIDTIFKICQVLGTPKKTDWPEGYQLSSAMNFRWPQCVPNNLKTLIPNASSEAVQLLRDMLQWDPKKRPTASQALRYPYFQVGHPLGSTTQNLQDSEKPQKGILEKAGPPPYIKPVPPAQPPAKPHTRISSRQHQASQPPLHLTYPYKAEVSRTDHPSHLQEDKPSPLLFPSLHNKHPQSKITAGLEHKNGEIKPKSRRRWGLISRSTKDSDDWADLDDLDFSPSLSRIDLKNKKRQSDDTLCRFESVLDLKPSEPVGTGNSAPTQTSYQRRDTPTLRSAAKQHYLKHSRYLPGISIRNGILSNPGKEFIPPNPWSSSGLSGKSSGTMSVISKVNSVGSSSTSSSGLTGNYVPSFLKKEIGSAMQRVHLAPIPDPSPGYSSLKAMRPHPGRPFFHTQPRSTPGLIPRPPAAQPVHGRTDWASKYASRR
Chain of Activin receptor type-1-like (Homo sapiens) (P37023 whole entry): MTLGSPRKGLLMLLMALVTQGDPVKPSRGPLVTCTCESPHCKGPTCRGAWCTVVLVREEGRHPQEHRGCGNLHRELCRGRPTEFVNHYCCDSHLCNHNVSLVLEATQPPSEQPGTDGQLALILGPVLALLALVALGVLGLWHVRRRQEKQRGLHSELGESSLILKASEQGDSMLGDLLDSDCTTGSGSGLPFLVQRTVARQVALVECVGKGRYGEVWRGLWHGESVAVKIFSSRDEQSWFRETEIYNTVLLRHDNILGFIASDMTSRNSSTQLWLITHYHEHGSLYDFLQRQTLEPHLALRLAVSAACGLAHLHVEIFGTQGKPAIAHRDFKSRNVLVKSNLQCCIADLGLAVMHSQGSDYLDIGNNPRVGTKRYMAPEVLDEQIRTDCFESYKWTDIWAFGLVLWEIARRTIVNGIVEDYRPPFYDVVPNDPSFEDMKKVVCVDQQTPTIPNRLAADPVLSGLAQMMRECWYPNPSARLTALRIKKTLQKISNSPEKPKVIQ
Chain of Death-associated protein kinase 3 (Homo sapiens) (O43293 whole entry, looked up, the tested form may be a part): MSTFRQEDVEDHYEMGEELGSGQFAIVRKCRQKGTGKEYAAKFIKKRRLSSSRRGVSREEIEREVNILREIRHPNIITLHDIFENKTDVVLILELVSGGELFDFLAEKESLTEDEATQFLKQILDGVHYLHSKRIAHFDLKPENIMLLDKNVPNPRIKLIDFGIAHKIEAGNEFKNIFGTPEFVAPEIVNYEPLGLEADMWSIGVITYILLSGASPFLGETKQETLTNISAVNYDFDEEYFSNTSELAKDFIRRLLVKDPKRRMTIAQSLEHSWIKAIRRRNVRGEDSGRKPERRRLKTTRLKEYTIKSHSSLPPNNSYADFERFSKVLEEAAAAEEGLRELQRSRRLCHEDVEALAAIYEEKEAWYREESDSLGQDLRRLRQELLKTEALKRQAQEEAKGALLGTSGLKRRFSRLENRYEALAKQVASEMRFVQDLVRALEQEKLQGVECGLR
Chain of Serine/threonine-protein kinase 3 (Homo sapiens) (Q13188 whole entry, the tested form may be a part): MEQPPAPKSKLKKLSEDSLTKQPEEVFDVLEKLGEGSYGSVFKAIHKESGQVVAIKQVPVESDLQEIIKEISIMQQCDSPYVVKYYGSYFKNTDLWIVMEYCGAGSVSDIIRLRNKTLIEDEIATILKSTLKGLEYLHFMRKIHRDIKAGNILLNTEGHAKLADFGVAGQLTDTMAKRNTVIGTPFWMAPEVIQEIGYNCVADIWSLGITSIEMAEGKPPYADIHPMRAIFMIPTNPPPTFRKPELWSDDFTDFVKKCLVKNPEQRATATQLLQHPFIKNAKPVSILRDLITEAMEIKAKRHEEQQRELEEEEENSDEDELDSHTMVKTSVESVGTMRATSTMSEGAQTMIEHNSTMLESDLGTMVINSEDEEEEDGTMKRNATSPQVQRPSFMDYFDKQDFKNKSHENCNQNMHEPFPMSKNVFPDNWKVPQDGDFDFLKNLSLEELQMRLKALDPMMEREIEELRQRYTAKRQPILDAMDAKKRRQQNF
Chain of Beta-adrenergic receptor kinase 1 (Homo sapiens) (P25098 whole entry): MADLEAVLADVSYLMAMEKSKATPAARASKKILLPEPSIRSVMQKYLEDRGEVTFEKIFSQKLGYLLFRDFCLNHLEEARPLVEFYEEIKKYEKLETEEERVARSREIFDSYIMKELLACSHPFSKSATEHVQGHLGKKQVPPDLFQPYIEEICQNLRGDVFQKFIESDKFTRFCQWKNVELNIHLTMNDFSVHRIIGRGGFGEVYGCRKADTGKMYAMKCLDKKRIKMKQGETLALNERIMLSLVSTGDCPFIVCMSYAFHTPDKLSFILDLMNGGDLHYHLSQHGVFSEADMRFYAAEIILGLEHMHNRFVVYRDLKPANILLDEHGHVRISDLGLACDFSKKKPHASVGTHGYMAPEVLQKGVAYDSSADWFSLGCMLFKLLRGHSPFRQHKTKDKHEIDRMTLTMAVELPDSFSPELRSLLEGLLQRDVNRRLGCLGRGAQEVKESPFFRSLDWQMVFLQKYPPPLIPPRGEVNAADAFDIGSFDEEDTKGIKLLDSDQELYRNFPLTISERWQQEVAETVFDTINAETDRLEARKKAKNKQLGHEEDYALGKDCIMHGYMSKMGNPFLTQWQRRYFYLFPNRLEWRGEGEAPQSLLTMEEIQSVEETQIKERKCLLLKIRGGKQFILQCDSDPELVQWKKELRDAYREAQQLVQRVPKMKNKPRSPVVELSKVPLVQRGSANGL
Chain of FKBP12A/mTOR (Homo sapiens) (P62942 2-108 limits assumed, other chains not shown): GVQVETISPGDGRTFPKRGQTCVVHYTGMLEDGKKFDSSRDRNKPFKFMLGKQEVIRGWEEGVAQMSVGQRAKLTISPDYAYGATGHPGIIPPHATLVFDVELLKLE
Chain of Tyrosine-protein kinase Lck (Homo sapiens) (P06239 2-509 limits assumed): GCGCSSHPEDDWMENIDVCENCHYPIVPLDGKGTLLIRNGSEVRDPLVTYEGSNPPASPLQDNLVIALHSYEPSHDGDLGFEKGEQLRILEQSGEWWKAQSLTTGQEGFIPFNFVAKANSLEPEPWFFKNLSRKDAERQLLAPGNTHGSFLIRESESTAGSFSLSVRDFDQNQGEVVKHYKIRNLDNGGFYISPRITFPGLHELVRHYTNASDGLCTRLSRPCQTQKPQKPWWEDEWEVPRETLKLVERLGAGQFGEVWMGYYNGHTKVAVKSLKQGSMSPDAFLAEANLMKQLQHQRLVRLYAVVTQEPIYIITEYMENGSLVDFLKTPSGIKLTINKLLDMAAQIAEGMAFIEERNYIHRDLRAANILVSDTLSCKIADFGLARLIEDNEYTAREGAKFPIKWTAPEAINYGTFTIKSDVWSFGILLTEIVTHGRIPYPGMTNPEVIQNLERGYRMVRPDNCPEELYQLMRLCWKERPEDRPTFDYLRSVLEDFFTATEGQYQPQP
Chain of Angiopoietin-1 receptor (Homo sapiens), Q02763 [Q939H,Q940H] (Q02763 whole entry Q939H/Q940H): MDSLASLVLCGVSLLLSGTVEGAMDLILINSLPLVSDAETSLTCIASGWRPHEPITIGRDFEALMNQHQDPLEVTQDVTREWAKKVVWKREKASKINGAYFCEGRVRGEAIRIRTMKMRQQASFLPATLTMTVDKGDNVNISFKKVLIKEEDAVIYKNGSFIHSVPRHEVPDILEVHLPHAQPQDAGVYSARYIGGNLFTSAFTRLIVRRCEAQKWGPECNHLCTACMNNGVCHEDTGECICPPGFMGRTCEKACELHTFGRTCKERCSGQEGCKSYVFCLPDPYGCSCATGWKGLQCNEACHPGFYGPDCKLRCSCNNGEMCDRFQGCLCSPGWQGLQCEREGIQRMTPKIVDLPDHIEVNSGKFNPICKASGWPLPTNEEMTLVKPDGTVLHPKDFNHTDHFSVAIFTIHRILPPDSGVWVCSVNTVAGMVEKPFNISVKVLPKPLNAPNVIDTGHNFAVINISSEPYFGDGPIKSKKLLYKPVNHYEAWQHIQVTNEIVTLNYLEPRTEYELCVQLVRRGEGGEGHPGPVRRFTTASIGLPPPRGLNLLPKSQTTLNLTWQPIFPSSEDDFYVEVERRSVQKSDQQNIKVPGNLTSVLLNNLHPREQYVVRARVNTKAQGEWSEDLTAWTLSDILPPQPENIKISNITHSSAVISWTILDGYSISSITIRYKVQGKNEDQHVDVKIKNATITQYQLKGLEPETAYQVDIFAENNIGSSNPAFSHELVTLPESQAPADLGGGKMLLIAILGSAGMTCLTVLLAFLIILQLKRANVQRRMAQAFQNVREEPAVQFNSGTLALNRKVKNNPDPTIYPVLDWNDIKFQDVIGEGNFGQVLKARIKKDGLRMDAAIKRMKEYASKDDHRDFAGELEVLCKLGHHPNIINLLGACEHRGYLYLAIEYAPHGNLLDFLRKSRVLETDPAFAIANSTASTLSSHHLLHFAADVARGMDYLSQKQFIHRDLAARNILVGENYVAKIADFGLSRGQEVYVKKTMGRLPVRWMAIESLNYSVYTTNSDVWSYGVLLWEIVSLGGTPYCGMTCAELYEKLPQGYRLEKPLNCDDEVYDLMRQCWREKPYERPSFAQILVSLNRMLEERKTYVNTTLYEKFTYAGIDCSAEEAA
Chain of Dual specificity protein kinase CLK3 (Homo sapiens) (P49761 whole entry, looked up): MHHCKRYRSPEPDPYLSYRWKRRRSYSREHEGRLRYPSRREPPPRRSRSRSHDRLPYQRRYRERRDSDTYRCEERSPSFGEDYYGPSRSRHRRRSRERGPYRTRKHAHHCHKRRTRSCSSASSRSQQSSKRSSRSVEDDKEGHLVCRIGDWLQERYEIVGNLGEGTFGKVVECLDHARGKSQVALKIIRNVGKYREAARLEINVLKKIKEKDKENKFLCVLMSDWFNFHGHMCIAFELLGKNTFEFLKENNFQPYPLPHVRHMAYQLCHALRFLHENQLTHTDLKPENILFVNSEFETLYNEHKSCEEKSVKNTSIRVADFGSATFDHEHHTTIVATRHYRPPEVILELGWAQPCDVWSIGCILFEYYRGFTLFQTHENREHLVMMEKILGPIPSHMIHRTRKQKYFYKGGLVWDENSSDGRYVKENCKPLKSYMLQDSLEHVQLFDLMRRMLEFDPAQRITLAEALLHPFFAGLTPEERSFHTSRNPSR

## Cc1cc(C)c(CNc2nc(Cl)nc3c2ncn3C2CCCC2)c(=O)[nH]1
HCT-116 [1]
  inhibition at 0.05 µM: 100%
HCT-116 [2]
  viability at 0.05 µM: 42.6%
CT26
  IC50: 45.5 nM
[3]
  Activity: 75.5%
[4]
  Activity: 102%
[5]
  Activity: 106%
[6]
  Activity: 108%
[7]
  Activity: 96.5%
[8]
  Activity: 97.5%
[9]
  Activity: 123%
[10]
  Activity: 101%
[11]
  Activity: 114%
[12]
  Activity: Non-Toxic
[13]
  Activity: 98%
[14]
  Activity: 116%
HCT-116 [15]
  Activity: Dose-dependent effect
[16]
  Activity: Non-Toxic
[17]
  Activity: 100%
[18]
  Activity: 96.5%
[19]
  Activity: 102%
[20]
  Activity: 84.5%
[21]
  Activity: 110%
[22]
  Activity: 124%
[23]
  Activity: 110%
Homo sapiens
  Activity: 106%
